Measurements taken from patent US8304002B2, “Fenugreek extract for treating human and animal diseases involving flagellate parasites” (Setubio S.A.S., priority 2008, dated 2012).

How the values were obtained:
Histomonas meleagridis [1] = assay: Anti-Histomonas activity: in vitro culture with parasite counts; assay type: cell-based
Description: The strain of H. meleagridis was isolated from the caeca of turkeys experimentally infested with eggs of the H. gallinarum worm. The parasites were cultured at 39° C. in sealed glass tubes containing 3 mL of supplemented M199 medium. They were transferred twice a week. To do this, 80 μL of preculture were added to 3 mL of fresh medium previously heated in a water bath to 39° C. Counting was performed in a Malassez counting chamber after staining with 0.4% trypan blue. The 100 fields of the chamber were counted. […] was tested at different concentrations. A parasite count was performed three times after 72 h incubation. A negative control was included by replacing the extract with the solvent only (sterile water). To study the dose-dependent effect, each test was performed in triplicate, with different concentrations, counting the parasites at 24 h, 48 h and 72 h. A negative control was included by replacing the extract with the solvent only.

MRC5 cells = assay: Cytotoxicity test (protein assay, SRB) on MRC5 cells; assay type: cell-based, human; conditions: MRC5, 100 μg/mL to 2 mg/mL, 24 h and 48 h
Description: The MRC5 cells (primary human foetal lung fibroblasts) were cultured in 25 or 75 cm^2 dishes in supplemented MEM (Minimum Essential Medium, Life Technologies Gibco), in a chamber at 37° C. and % CO2. 500 mL of MEM was supplemented with foetal calf serum (10% final), glutamine 2 mM (5 mL), antibiotics (5 mL penicillin/streptomycin i.e. […], 0.5 mL ampicillin i.e. 10 μg/ml, 0.25 mL gentamicin i.e. 25 μg/mL) and fungicides (5 mL fungizone i.e. 2.5 μg/mL). When the cells reached confluence, they were trypsinised and transferred into 96-well plates at […]. They were then incubated at 37° C., 5% CO2 for 24 h before starting the test. The plates were duplicated for a protein assay after 24 and 48 h. This test consists of culturing the cells in the presence of extracts, then precipitating total proteins to determine their concentration. The MRC5 cells were put into contact with 200 μL of supplemented MEM containing different concentrations of the extracts to be tested. […] Each dilution was tested in triplicate to produce a mean. Two controls were used: • a negative control: cells in the supplemented MEM only • a positive control: cells in the presence of a mixture of the supplemented MEM and 50% DMSO The plates were then incubated at 37° C., 5% CO2 for 24 or 48 h. […] The contents of the wells were homogenised and the optical density read at 490 nm. […]

[2] = tested on: bacterial flora associated with H. meleagridis; assay: Effect on the bacterial flora associated with H. meleagridis; assay type: cell-based; conditions: 48 h of culture, FIG. 4
Description: An aliquot of H. meleagridis culture was taken. Four serial dilutions (10^-4 to 10^-7) were made in liquid tryptone soya medium. 20 μL of each dilution was spread onto tryptone soya agar medium. Incubation at 37° C. overnight. The effects of different concentrations of […] and of DMZ on the associated bacterial flora after 48 h of culture were then compared. The results are expressed in number of bacteria per mL (FIG. 4). The extract […] was histomonicidal from 1 mg/mL. It had no effect on the associated bacterial flora. Dimetridazole is histomonicidal from 25 μg/mL at 72 h. On the other hand it is bactericidal from 400 μg/mL.

Histomonas meleagridis [3] = assay: Regrowth of H. meleagridis after transfer into fresh medium following 72 h treatment; assay type: cell-based
Description: After 72 h of treatment with […] and DMZ, the parasites were put into fresh medium for 96 h to analyse the histomonicidal effect (FIG. 5).

[4] = 25 μg/mL for 72 h, then fresh medium 96 h

Row | Structure (SMILES) | inhibition at 2000 µg/mL (Histomonas meleagridis [1]; Histomonas meleagridis, 2 mg/mL, at 72 h, read-out: inhibition of proliferation of H. meleagridis) | effect on the proliferation of H. meleagridis (Histomonas meleagridis [1]; at 2 mg/mL) | cytotoxicity for human cells in culture (MRC5 cells) | effect on growth of H. meleagridis (in words) (Histomonas meleagridis [1]; FIG. 3, tested in parallel S520/DMZ) | concentration from which histomonicidal (Histomonas meleagridis [1]; at 72 h) | concentration at which parasiticidal (Histomonas meleagridis [1]; growth of H. meleagridis, FIG. 3) | concentration from which bactericidal [2] | regrowth of the culture (Histomonas meleagridis [3]; 12.5 μg/mL for 72 h, then fresh medium 96 h) | growth relative to the control after transfer (Histomonas meleagridis [3]; [4]) | regrowth of the culture (Histomonas meleagridis [3]; [4]) | regrowth of the culture (Histomonas meleagridis [3]; 400 μg/mL for 72 h, then fresh medium 96 h) | regrowth of the culture (Histomonas meleagridis [3]; 1 mg/mL for 72 h, then fresh medium 96 h) | concentration from which histomonicidal (confirmed by regrowth) (Histomonas meleagridis [3]; 72 h treatment, then fresh medium 96 h) | histomonicidal or histomonostatic (confirmed by regrowth) (Histomonas meleagridis [3]; at 25 μg/mL)
1 | O=C(N/N=C/c1ccc([N+](=O)[O-])o1)c1cc([N+](=O)[O-])cc([N+](=O)[O-])c1O [Nifursol] | 38% | slightly histomonostatic | not toxic |  |  |  |  |  |  |  |  |  |  | 
2 | Cc1ncc([N+](=O)[O-])n1C [DMZ, dimetridazole] |  |  |  | parasitostatic | ≥ 25 µg/mL | 25 µg/mL | ≥ 400 µg/mL | regrowth | about 30% | regrowth | No regrowth | No regrowth | ≥ 400 µg/mL | histomonostatic
